Data from patent publication US10933051B2, “Carbapenem compounds and compositions for the treatment of bacterial infections” (FOB Synthesis, Inc., priority 2017, dated 2021).

How the values were obtained:
Assay type in all cases: cell-based
Parameters in all cases: unit not given here
P. aeruginosa FSPa-121 = test: Antimicrobial Susceptibility Test (CLSI), Test Example 2; conditions: Table 4; strain produces OXA-17
Experimental: (§1) Antimicrobial Susceptibility Test was performed by the CLSI (Clinical and Laboratory Standards Institute) methods. The agar dilution method for determining antimicrobial susceptibility was carried out using Mueller Hinton-II agar and the amount of inoculation was 10^4CFU/spot. Broth dilution tests were performed using the Mueller Hinton-II broth. All assays were run with the indicated control strains, available from the ATCC (American Type Culture Collection, Rockville, Md.).

A. baumannii FSAb-065 = test: as above; conditions: Table 4; strain produces OXA-2, VIM-2
Experimental: as §1

A. baumannii FSAb-056 [1] = test: as above; conditions: Table 4; strain produces OXA-23, OXA-51
Experimental: as §1

A. baumannii FSAb-039 [2] = test: as above; conditions: Table 4; strain produces OXA-51
Experimental: as §1

E. coli FSEco-054 [3] = test: as above; conditions: Table 4; strain produces ESBL
Experimental: as §1

A. baumannii FSAb-029 [4] = test: as above; conditions: Table 4; strain produces OXA-2, IMP-1
Experimental: as §1

[5] = test system: K. pneumoniae ATCC BAA-1904; test: as above; conditions: Table 4; strain produces KPC-3
Experimental: as §1

P. aeruginosa FSPa-141 = test: Antimicrobial Susceptibility Test (CLSI), Test Example 3; conditions: Table 6; strain produces VIM-2
Experimental: as §1

P. aeruginosa FSPa-102 = test: as above; conditions: Table 6; strain produces IMP-1
Experimental: as §1

A. baumannii FSAb-141 = test: as above; conditions: Table 6; strain produces PER-1, OXA-23, 51, 66
Experimental: as §1

A. baumannii FSAb-056 [6] = test: as above; conditions: Table 6; strain produces OXA-23, 51
Experimental: as §1

A. baumannii FSAb-039 [7] = test: as above; conditions: Table 6; strain produces OXA-51
Experimental: as §1

K. pneumoniae BAA-1904 = test: as above; conditions: Table 6; strain produces KPC-3
Experimental: as §1

E. coli FSEco-054 [8] = test: as above; conditions: Table 6; strain produces ESBL
Experimental: as §1

A. baumannii FSAb-029 [9] = test: as above; conditions: Table 6; strain produces OXA-2, IMP-1
Experimental: as §1

Row | SMILES | antimicrobial susceptibility, P. aeruginosa FSPa-121 (P. aeruginosa FSPa-121) | antimicrobial susceptibility, A. baumannii FSAb-065 (A. baumannii FSAb-065) | antimicrobial susceptibility, A. baumannii FSAb-056 (A. baumannii FSAb-056 [1]) | antimicrobial susceptibility, A. baumannii FSAb-039 (A. baumannii FSAb-039 [2]) | antimicrobial susceptibility, E. coil FSEco-054 (E. coli FSEco-054 [3]) | antimicrobial susceptibility, A. baumannii FSAb-029 (A. baumannii FSAb-029 [4]) | antimicrobial susceptibility, K. pneumoniae BAA-1904 [5] | antimicrobial susceptibility, Pa FSPa-141 (P. aeruginosa FSPa-141) | antimicrobial susceptibility, Pa FSPa-102 (P. aeruginosa FSPa-102) | antimicrobial susceptibility, Ab FSAb-141 (A. baumannii FSAb-141) | antimicrobial susceptibility, Ab FSAb-056 (A. baumannii FSAb-056 [6]) | antimicrobial susceptibility, Ab FSAb-039 (A. baumannii FSAb-039 [7]) | antimicrobial susceptibility, Kp BAA-1904 (K. pneumoniae BAA-1904) | antimicrobial susceptibility, Ec FSEco-054 (E. coli FSEco-054 [8]) | antimicrobial susceptibility, Ab FSAb-029 (A. baumannii FSAb-029 [9])
1 | C[C@@H](O)[C@H]1C(=O)N2C(C(=O)O)=C(CN3C[C@@H](NC(=O)c4ccc(O)c(O)c4Cl)C[C@H]3C(N)=O)[C@H](C)[C@H]12 [Compound 32] | 1 | 1 | 16 | >32 | 4 | 2 | >32 |  |  |  |  |  |  |  | 
2 | C[C@@H](O)[C@H]1C(=O)N2C(C(=O)O)=C(CN3C[C@@H](NC(=O)c4ccc(O)c(O)c4Cl)C[C@@H]3C(N)=O)[C@H](C)[C@H]12 [Compound 33] | 2 | 1 | 8 | 32 | 4 | 4 | >32 |  |  |  |  |  |  |  | 
3 | C[C@@H](O)[C@H]1C(=O)N2C(C(=O)O)=C(CN3CCCC3CNC(=O)c3ccc(O)c(O)c3Cl)[C@H](C)[C@H]12 (some centres unmarked) [Compound 34] | 8 | 8 | 8 | 8 | 2 | 2 | >32 |  |  |  |  |  |  |  | 
4 | C[C@@H](O)[C@H]1C(=O)N2C(C(=O)O)=C(CN3CCCC3CNC(=O)c3ccc(O)c(O)c3Cl)[C@H](C)[C@H]12 (some centres unmarked) [Compound 35] | 4 | 2 | 4 | 8 | 2 | 4 | >32 |  |  |  |  |  |  |  | 
5 | C[C@@H](O)[C@H]1C(=O)N2C(C(=O)O)=C(CN3CCC(C(=O)NCc4ccc(O)c(O)c4Cl)C3)[C@H](C)[C@H]12 (some centres unmarked) [Compound 37] | 8 | 4 | 16 | 32 | 8 | 8 | >32 |  |  |  |  |  |  |  | 
6 | C[C@@H](O)[C@H]1C(=O)N2C(C(=O)O)=C(CN3CC(NC(=O)c4ccc(O)c(O)c4Cl)C3)[C@H](C)[C@H]12 [Compound 38] | 4 | 0.25 | 4 | 4 | 2 | 0.5 | 16 |  |  |  |  |  |  |  | 
7 | C[C@@H](O)[C@H]1C(=O)N2C(C(=O)O)=C(CN3CC(C(=O)NCc4ccc(O)c(O)c4Cl)C3)[C@H](C)[C@H]12 [Compound 39] | 16 | 1 | 8 | 8 | 2 | 4 | 8 |  |  |  |  |  |  |  | 
8 | C[C@@H](O)[C@H]1C(=O)N2C(C(=O)[O-])=C(C[N+](C)(C)CCNC(=O)c3ccc(O)c(O)c3Cl)[C@H](C)[C@H]12 [Compound 40] | 4 | 4 | 8 | 16 | 4 | 8 | 16 |  |  |  |  |  |  |  | 
9 | C[C@@H](O)[C@H]1C(=O)N2C(C(=O)O)=C(CN(CCNC(=O)c3ccc(O)c(O)c3F)CCNC(=O)c3ccc(O)c(O)c3F)[C@H](C)[C@H]12 [Compound 101] |  |  |  |  |  |  |  | 1 | 1 | 0.5 | 4 | 2 | >32 | 2 | 0.25
10 | C[C@@H](O)[C@H]1C(=O)N2C(C(=O)O)=C(CN(CCCNC(=O)c3ccc(O)c(O)c3F)CCNC(=O)c3ccc(O)c(O)c3F)[C@H](C)[C@H]12 [Compound 102] |  |  |  |  |  |  |  | 2 | 1 | 0.5 | 4 | 1 | >32 | 1 | 0.25
11 | C[C@@H](O)[C@H]1C(=O)N2C(C(=O)O)=C(CN(CCCNC(=O)c3ccc(O)c(O)c3F)CCCNC(=O)c3ccc(O)c(O)c3F)[C@H](C)[C@H]12 [Compound 103] |  |  |  |  |  |  |  | 8 | 2 | 1 | 4 | 1 | >32 | 1 | 0.25
12 | C[C@@H](O)[C@H]1C(=O)N2C(C(=O)O)=C(CN(CCCCNC(=O)c3ccc(O)c(O)c3F)CCCNC(=O)c3ccc(O)c(O)c3F)[C@H](C)[C@H]12 [Compound 104] |  |  |  |  |  |  |  | 4 | 2 | 1 | 4 | 2 | >32 | 1 | 0.5
13 | C[C@@H](O)[C@H]1C(=O)N2C(C(=O)O)=C(CN(CCNC(=O)c3ccc(O)c(O)c3Cl)CCNC(=O)c3ccc(O)c(O)c3Cl)[C@H](C)[C@H]12 [Compound 105] |  |  |  |  |  |  |  | 0.5 | 1 | 0.5 | 2 | 2 | 16 | 1 | 0.5
14 | C[C@@H](O)[C@H]1C(=O)N2C(C(=O)O)=C(CN(CCCNC(=O)c3ccc(O)c(O)c3Cl)CCNC(=O)c3ccc(O)c(O)c3Cl)[C@H](C)[C@H]12 [Compound 106] |  |  |  |  |  |  |  | 1 | 1 | 0.5 | 2 | 1 | >32 | 1 | 0.25
15 | C[C@@H](O)[C@H]1C(=O)N2C(C(=O)O)=C(CN(CCCNC(=O)c3ccc(O)c(O)c3Cl)CCCNC(=O)c3ccc(O)c(O)c3Cl)[C@H](C)[C@H]12 [Compound 107] |  |  |  |  |  |  |  | 1 | 1 | 0.5 | 2 | 1 | >32 | 0.5 | 0.25
16 | C[C@@H](O)[C@H]1C(=O)N2C(C(=O)O)=C(CN(CCCCNC(=O)c3ccc(O)c(O)c3Cl)CCCNC(=O)c3ccc(O)c(O)c3Cl)[C@H](C)[C@H]12 [Compound 108] |  |  |  |  |  |  |  | 2 | 2 | 1 | 4 | 2 | >32 | 1 | 1
17 | C[C@@H](O)[C@H]1C(=O)N2C(C(=O)O)=C(CN(CCCNC(=O)c3ccc(O)c(O)c3)CCNC(=O)c3ccc(O)c(O)c3)[C@H](C)[C@H]12 [Compound 109] |  |  |  |  |  |  |  | 4 | 4 | 2 | 4 | 2 | >32 | 2 | 1
